In ChEMBL document CHEMBL1150800, “Multiple-dose escalation study of the safety, pharmacokinetics, and biologic activity of oral AMD070, a selective CXCR4 receptor inhibitor, in human subjects” (Antimicrob Agents Chemother, 2007):
In brackets after ≈: the same amount, converted by molar mass.

Test system: Human immunodeficiency virus 1
Experiment: Antiviral activity against HIV1 NL4.3 in human MT4 cells
Type: functional, organism-based
Conditions: Human immunodeficiency virus 1, MT4

IC50: 1.5 ng/mL (≈ 2.98 nM)
Structure (SMILES): c1cc(CN2CCCNCCNCCCNCC2)ccc1CN1CCCNCCNCCCNCC1 [PLERIXAFOR]
